According to patent US20050059610A1 (priority 2003, published 2005):
“Also recorded” adds a separate entry of the source.

Tests used:
critically ill patients = assay: Clinical outcomes in critically ill patients, glutamine vs control; format: in vivo, human
experimental SIRS (CLP) = assay: Serum HSP72 (ELISA) and survival after CLP (experimental SIRS); format: in vivo, Sprague-Dawley rats
endotoxin-induced sepsis = assay: Lethal endotoxemia: survival, HSP expression, cytokine release; format: in vivo, rat; settings: GLN concurrently with lethal doses of endotoxin
Description: Evaluation of pro-inflammatory cytokine release was also assessed following endotoxemia.

heatstroke = assay: Experimental heatstroke in the rat, oral GLN; format: in vivo, Sprague-Dawley Rats
Description: Heatstroke was performed in anesthetized rats (ketamine/xylazine) by heating animals to 42 deg C. (rectal temperature) for 30 minutes. Survival was analyzed for five days post-heatstroke. In a separate set of animals, HSP 70 and Heat Shock Factor-1 activation (HSF-1) were analyzed at 1-hour and 24-hours post-heatstroke in heart and lung tissue via western blot (n=10/group). Statistical analysis was performed via Fischer's Exact Test for survival and ANOVA with Duncan grouping as post-hoc test for HSP-70 and HSF-1 expression.

[1] = test system: intestinal epithelial cells; assay: Protection of cells against heat and oxidant stress; format: cell-based
Excerpt: This was proven when blockade of HSP 70 expression via quercetin (inhibits HSF-1 binding) and via direct antisense inhibition of the HSP-70 gene (FIG. 12).

serum HSP 70 = assay: Serum HSP-70 levels in critically ill patients (surgical ICU), GLN vs control; format: in vivo, human; settings: for Baseline HSP-70 / LN(Baseline HSP-70): before treatment
[2] = test system: myocardial tissue metabolism; assay: Rat working heart model, myocardial tissue metabolism by 1H-/31P-MRS; format: in vivo
Description: The tissue was analyzed for ATP, ADP, and ATP/ADP ratio via ^31P-magnetic resonance spectroscopy (MRS) and for creatine/phosphocreatine content via ^1H-magnetic resonance spectroscopy (MRS). […] The tissue was analyzed for lactate content via ^1H-MRS. […] Glutamine pretreatment enhances myocardial tissue content (glutamine, glutamate, and glucose) content following myocardial I/R injury in the rat. […] Glutamate is a vital tissue substrate following myocardial injury and it is beneficial that a single dose of […]/R injury can preserve tissue levels of this key substrate following injury. […] This key finding confirms that it is possible to enhance myocardial tissue substrate content (particularly glutamate) with a (pre-operative) remote GLN pre-treatment dose. […] Substrates were analyzed via ^1H-MRS. […] The tissue was analyzed for myocardial tissue reduced glutathione content via ^1H-magnetic resonance spectroscopy (MRS). […] Glutamine pretreatment preserves myocardial NAD (+)/NADH content following myocardial I/R injury in the rat. […] The tissue was analyzed for NAD (+)/NADH content via ^31P-magnetic resonance spectroscopy (MRS). […] NAD(+)/NADH was analyzed via […]. (**-p<0.01 versus pre-ischemic values, ##-p<0.01 versus post-ischemic LR control tissue via ANOVA.)

sepsis (CLP) = assay: CLP with or without quercetin (HSP 70 inhibitor): survival, lung HSP/NOS, metabolism, TNF; format: in vivo, Sprague-Dawley rats
Description: Methods: Male Sprague-Dawley rats were divided into 5 groups. Two groups were treated with 400 mg/kg of quercetin (Q) IP (HSP 70 inhibitor) 6 hours pre-CLP. […] The final group (CONT, n=6) received no treatment. Five-day survival was monitored. In separate studies, lung was harvested 24-hours post-CLP and tissue metabolism analyzed by 31P- and 1H-MRS. A final study analyzed blood for TNF- at 6 hours post-CLP and lung tissue 6 hours post-CLP for HSP-70, iNOS, eNOS, and activated heat shock factor-1 (HSF-1).

[3] = test system: polymicrobial sepsis (CLP); assay: Cecal ligation and puncture (CLP): lung and heart tissue metabolism by MRS, survival; format: in vivo, Sprague-Dawley rats
Description: Survival was monitored for five days. In a separate group of animals (n=4/group), lung and heart tissue was harvested 24 hours post-CLP and tissue metabolism was analyzed by ^1H-MRS and ^31P-MRS.

[4] = test system: polymicrobial sepsis (2CLP); assay: Cecal-ligation and double-puncture (2CLP) sepsis: survival, cytokines, lung HSP 72; format: in vivo, Sprague-Dawley rats
Excerpt: Further, increased Interleukin-18 (IL-18) levels appear to play a critical role in cytokine-induced organ failure and can be predictive of mortality in sepsis patients.
Increased Interleukin-18 (IL-18) levels appear to play a critical role in cytokine-induced organ failure and can be predictive of mortality in sepsis patients.

[5] = test system: peripheral blood mononuclear cells; assay: Glutamine-treated peripheral blood mononuclear cells; format: cell-based
[6] = non-pancreatic diagnoses, n = 7
[7] = five days of oral GLN prior to heatstroke
[8] = GLN 0.75 g/kg IV one-hour post-CLP, 6 hours post-CLP

Structure (SMILES): NC(=O)CC[C@H](N)C(=O)O [GLN, Glutamine]
- ICU days (critically ill patients; all diagnoses, n = 15): 15.73 ± 16.18 days
- Length of stay (critically ill patients; all diagnoses, n = 15): 29.73 ± 14.46 days
- Maximum Total Bilirubin (units??) (critically ill patients; all diagnoses, n = 15): 1.23 ± 0.67
- Maximum Total Creatinine (units??) (critically ill patients; all diagnoses, n = 15): 1.26 ± 0.89
- Number of bacterial infections (critically ill patients; all diagnoses, n = 15): 0.20 ± 0.41
- Number of infections (critically ill patients; all diagnoses, n = 15): 1.87 ± 2.59
- One or more bacterial infections (%) (critically ill patients; all diagnoses, n = 15): 20.0%
- One or more infections (%) (critically ill patients; all diagnoses, n = 15): 60.0%
- Ventilator days (critically ill patients; all diagnoses, n = 15): 12.07 ± 15.25 days
- ICU days (critically ill patients; [6]): 16.71 ± 7.65 days
- Length of stay (critically ill patients; [6]): 25.29 ± 6.18 days
- Maximum Total Bilirubin (units??) (critically ill patients; [6]): 1.70 ± 0.70
- Maximum Total Creatinine (units??) (critically ill patients; [6]): 1.80 ± 1.07
- Number of bacterial infections (critically ill patients; [6]): 0.0 ± 0.0
- Number of infections (critically ill patients; [6]): 1.43 ± 1.40
- One or more infections (%) (critically ill patients; [6]): 57.1%
- One ore more bacterial infection (%) (critically ill patients; [6]): 0%
- Ventilator days (critically ill patients; [6]): 12.86 ± 9.03 days
- survival following experimental SIRS (experimental SIRS (CLP); 5 days, BSS 18%): 61%
- sHSP72 vs. BSS (ELISA) (experimental SIRS (CLP); GLN (given as ALA-GLN) 0.75 g/Kg 1 hour post-CLP, 6 hours post-CLP): significantly enhanced
- HSP 70 and 23 following lethal endotoxemia (endotoxin-induced sepsis): enhanced
- mortality following lethal endotoxemia (endotoxin-induced sepsis): reduced mortality
- HSF-1 activation (heatstroke; 1-hour and 24-hours post-heatstroke): No change
- HSP 70 expression in heart and lung tissue (heatstroke; 1 hour post-heatstroke, versus unheated animals and heated controls): significantly enhanced
- HSP 70 between GLN and control animals (heatstroke; 24 hours post-heatstroke): no significant difference
- mortality following heatstroke (heatstroke; GLN 0.65 g/kg gavage twice a day for five days, 42 deg C. for 30 minutes, control 62.5%): 12.5%
- HSP 70 expression in heart, lung, and colon tissue (heatstroke; [7]): enhanced
- mortality from lethal heatstroke (in words) (heatstroke; [7]): significantly reduced
- protection of cells against heat and oxidant stress [1]: protection
- HSP-70 levels at 1-week, higher than control patients by (serum HSP 70; 95% CI −0.01 to 5.64, p=0.050): 2.82 units
- change in HSP-70 levels from baseline to 1-week, greater than control patients by (serum HSP 70; 95% CI −0.09 to 5.29, p=0.057): 2.60 units
- 1-week HSP-70 (serum HSP 70; all diagnoses, n = 15): 4.09 ± 4.70
- HSP-70 change from baseline (serum HSP 70; all diagnoses, n = 15): 3.48 ± 4.53
- LN(1-week HSP-70) (serum HSP 70; all diagnoses, n = 15): 0.56 ± 1.63
- LN(1-wk HSP/Baseline HSP) (serum HSP 70; all diagnoses, n = 15): 1.93 ± 1.23
- Baseline HSP-70 (serum HSP 70; all diagnoses, n = 15): 0.61 ± 1.05
- LN(Baseline HSP-70) (serum HSP 70; all diagnoses, n = 15): −1.37 ± 1.26
- enhancement of serum HSP levels versus iso-nitrogenous control solution (serum HSP 70; intravenous GLN, mixed critically ill patients, surgical ICU): four-fold enhancement
- 1-week HSP-70 (serum HSP 70; [6]): 3.43 ± 5.17
- HSP-70 change from baseline (serum HSP 70; [6]): 2.60 ± 4.77
- LN(1-week HSP-70) (serum HSP 70; [6]): 0.20 ± 1.70
- LN(1-wk HSP/Baseline HSP) (serum HSP 70; [6]): 1.63 ± 1.21
- Baseline HSP-70 (serum HSP 70; [6]): 0.83 ± 1.48
- LN(Baseline HSP-70) (serum HSP 70; [6]): −1.43 ± 1.58
- total ATP content following I/R injury ([2]; 0.52 g/kg GLN 18 hours prior, vs control): improved
- accumulation of myocardial lactate following I/R injury ([2]; GLN 18 hours prior): significant decrease; also recorded: decreased
- myocardial tissue content of glutamine and glucose following I/R injury versus LR control ([2]; GLN 18 hours prior, 1H-MRS): enhanced
- myocardial tissue creatine/phosphocreatine content following I/R injury ([2]; GLN 18 hours prior, 1H-MRS): enhanced
- myocardial tissue reduced glutathione content following I/R injury ([2]; GLN 18 hours prior, 1H-MRS): marked enhancement; also recorded: improved
- post-ischemic glutamate levels versus pre-ischemic levels ([2]; GLN 18 hours prior, 1H-MRS): no decrease
- myocardial NAD(+)/NADH content following I/R injury ([2]; GLN 18 hours prior, MRS): significant preservation; also recorded: improved
- reduction of the increase in tissue lactate versus control animals ([2]; GLN 18 hours prior, post I/R, 1H-MRS): > 55%
- lung NAD+ (sepsis (CLP); 24-hours post-CLP, MRS): improved
- lung lactate accumulation (sepsis (CLP); 24-hours post-CLP, MRS): attenuated
- lung eNOS (sepsis (CLP); 6 hours post-CLP): enhanced
- lung iNOS (sepsis (CLP); 6 hours post-CLP): attenuated
- plasma TNF- expression (sepsis (CLP); 6 hours post-CLP): attenuated
- 5-day survival (sepsis (CLP); GLN 0.75 g/kg IV one-hour post-CLP): significant improvement
- lung HSF-1 activation (sepsis (CLP); [8]): enhanced
- lung HSP70 expression (sepsis (CLP); [8]): enhanced
- fall in lung tissue Creatine/phosphocreatine ([3]; 24 hours post-CLP): significantly attenuated
- fall in lung tissue glucose ([3]; 24 hours post-CLP): significantly attenuated
- fall in lung tissue glutamine ([3]; 24 hours post-CLP): significantly attenuated
- lung lactate accumulation ([3]; 24 hours post-CLP, p<0.06): trend towards a decrease
- five day mortality rate post-CLP ([3]; GLN 0.75 g/Kg one hour post surgery): 78%
- NAD+ content in lung and heart tissue following CLP ([3]; GLN 0.75 g/Kg one hour post surgery, 24 hours post-CLP): significant improvement
- expression of IL-18 ([4]; 12, 18, and 24 hours post-2CLP): significantly attenuated
- expression of IL-6 ([4]; 6 hours post-2CLP): attenuated
- expression of TNF-α ([4]; 6 hours post-2CLP): attenuated
- lung HSP 72 expression versus control ([4]; following 2CLP): enhanced
- 5-day mortality rate following 2CLP ([4]; single dose GLN 0.75 g/Kg one hour following surgery, control 78%): 42%
- heat shock protein expression [5]: increase
- tumor-necrosis alpha release [5]: significant attenuation
